According to US5756291A, “Aptamers specific for biomolecules and methods of making” (priority 1995, dated 1998):
“And” between values parts separate entries of the source, which are not always exact repeats. Equal values may be shown once.

How the values were obtained:
Trypsin = assay: Filter binding specificity assay (Table 11), trypsin; set-up: dose or concentration left out as unconfirmed
Procedure: (§1) Briefly, radiolabeled aptamer DNA at about a concentration of about 1 nM was incubated with the indicated protein for several minutes at room temperature, followed by filtration of the aptamer-protein mixture through a nitrocellulose filter. The filter was washed with 3 mL of selection buffer and then radioactivity bound to the filters was determined as a % of input radioactivity. Binding data is shown for both unselected 96-mer DNA and for two separate experiments with clone #29 96-mer. All proteins were tested at about 1M concentration except human serum albumin which was used at 100M.

TPA = assay: Filter binding specificity assay (Table 11), TPA; details: TPA about 1 µM
Procedure: as §1

human serum albumin = assay: Filter binding specificity assay (Table 11), albumin; details: human serum albumin 100 µM; listed as Clone 29 DNA
Procedure: as §1

Kallikrein = assay: Filter binding specificity assay (Table 11), kallikrein; details: Kallikrein about 1 µM
Procedure: as §1

thrombin [1] = assay: Filter binding specificity assay (Table 11), thrombin; details: DNA about 1 nM
Procedure: as §1

Chymotrypsin = assay: Filter binding specificity assay (Table 11), chymotrypsin; details: Chymotrypsin about 1 µM
Procedure: as §1

Prothrombin = assay: Filter binding specificity assay (Table 11), prothrombin; set-up: dose or concentration left out as unconfirmed; details: listed as Clone 29 DNA
Procedure: as §1

Plasmin = assay: Filter binding specificity assay (Table 11), plasmin; set-up: dose or concentration left out as unconfirmed
Procedure: as §1

thrombin [2] = assay: Nitrocellulose filter binding, dissociation constant for thrombin; set-up: species or system human
Procedure: Filter binding assays using aptamer DNA from 14 of the clones were used to determine the dissociation constants (KD) for thrombin as follows: Thrombin concentrations between […] and 1 nM were incubated at room temperature in selection buffer for 5 minutes in the presence of […] of radiolabeled 96-mer derived from cloned Round 5 aptamer DNA. After incubation, the thrombin and aptamer mixture was applied to nitrocellulose filters (0.2 micron, 2.4 cm diameter) that were pretreated with salmon sperm DNA (1 mg/ml DNA in selection buffer) and washed twice with 1 ml selection buffer. After application of thrombin mixture, the filters were washed three times with 1 ml selection buffer. The radioactivity retained on the filters was then determined. KD values for the individual clones ranged from 50 to >2000 nM.
One of these two clones (#17) and the original unselected pool was analyzed for thrombin binding by nitrocellulose filter assay described above using DNA labeled with ^32 P to permit analysis of thrombin binding characteristics. The labeled DNA was synthesized by PCR and contained 5-(1-pentynyl)-2'-deoxyuridine in order to retain the original selected DNA structures. The DNA was incubated with thrombin at various concentrations between 10 nM and 10M to obtain the KD values for thrombin binding. The KD of the unselected pool was […] while the KD of clone 17 was 400 nM. […]

thrombin [3] = assay: Clotting time, thrombin-catalyzed conversion of fibrinogen to fibrin; assay type: biochemical; details: thrombin 10 nM
Procedure: Clotting time for the thrombin-catalyzed conversion of fibrinogen (2.0 mg/ml in selection buffer) to fibrin at 37 C. was measured using a precision coagulation timer apparatus (Becton-Dickinson, Cat. nos. 64015, 64019, 64020). Thrombin (10 nM) incubated with fibrinogen alone clotted in 40 sec, thrombin incubated with fibrinogen and P1 nuclease (Boehringer-Mannheim, Indianapolis, Ind.) clotted in 39 sec, thrombin incubated with fibrinogen and aptamer clone #5 (200 nM) clotted in 115 sec, and thrombin incubated with fibrinogen, clone #5 (200 nM) and […] clotted in 40 sec. All incubations were carried out at 37 C. using reagents prewarmed to 37 C. Aptamer DNA or, when present, P1 nuclease, was added to the fibrinogen solution prior to addition of thrombin.

ancrod = assay: Ancrod fibrinogen clotting assay; assay type: biochemical
Procedure: The thrombin 21-mer ancrod assay was conducted as follows. Ancrod was suspended in sterile water at a concentration of 44 U/mL. 10 L ancrod solution was added to 95 L of selection buffer prewarmed to 37 C. 100 L of this mixture was transferred to the coagulation cup of the fibrometer described above, followed by addition of 200 L of fibrinogen and 20 L of 21-mer DNA (both prewarmed to 37 C). TE buffer pH 7.0 was used as a control lacking DNA. The control clot time was 25 seconds while the clot time in the presence of 500 nM 21-mer was 24 seconds and was 26 seconds in the presence of 33M 21-mer.

thrombin [4] = assay: Prothrombin time test (PT) after intravenous aptamer in monkeys; assay type: in vivo, cynomologous monkeys; details: high dose infusion 0.5 mg/kg/min
Procedure: Two thrombin aptamers were administered to adult male cynomologous monkeys. Unsubstituted 15-mer DNA with the sequence 5' GGTTGGTGTGGTTGG 3' and an analog, 5' GGTTGGTGTGGTT*G*G 3', containing thioate internucleotide linkages at the indicated positions were used. Aptamer was delivered as an intravenous bolus or infusion and then blood samples were withdrawn at various times after delivery of the bolus or during and after infusion. The catheter was heparinized after the 10 minute timepoint. The animals were not systematically heparinized.
Thrombin inhibition was measured by a prothrombin time test (PT) using a commercially available kit, reagents and protocol (Sigma Diagnostics, St. Louis, catalog Nos. T 0263 and 870-3). Inhibition of thrombin was indicated by an increased clot time compared to the control in the PT test. Clot times were obtained by withdrawing a sample of blood, spinning out red cells and using the plasma in the PT test. Control thrombin PT clot time values were obtained several minutes prior to administration of aptamer. Briefly, the PT assay was conducted using 0.1 mL of monkey plasma prewarmed to 37 C. and 0.2 mL of a 1:1 mixture of thromboplastin (used according to manufacturers instructions) and CaCl2 (25 mM), also prewarmed to 37 C. Thrombin clot times were measured with a fibrometer as described above. […]

thrombin [5] = assay: Thrombin inhibition Ki; assay type: biochemical; details: Table 7
Source text: The binding affinity of the aptamers herein with respect to targets and other molecules is defined in terms of Kd. The value of this dissociation constant can be determined directly by well-known methods, and can be computed even for complex mixtures by methods such as those, for example, set forth in Caceci, M., et al., Byte (1984) 9:340-362. It has been observed, however, that for some small oligonucleotides, direct determination of Kd is difficult, and can lead to misleadingly high results. Under these circumstances, a competitive binding assay for the target molecule or other candidate substance may be conducted with respect to substances known to bind the target or candidate. The value of the concentration at which 50% inhibition occurs (Ki) is, under ideal conditions, equivalent to Kd. However, in no event can Ki be less than Kd. Thus, determination of Ki, in the alternative, sets a maximal value for the value of Kd. Under those circumstances where technical difficulties preclude accurate measurement of Kd, measurement of Ki can conveniently be substituted to provide an upper limit for Kd.
Independent verification of the Ki for the nonmodified 15-mer was made by determining the extent of thrombin inhibition with varying DNA concentration.

human blood = assay: Extracorporeal hemodialysis circuit blood coagulation; details: heparin 1 U/mL
Procedure: A bolus of 15-mer DNA was delivered to human blood at 37 C. to give an aptamer concentration of 10M. The blood was contained in an extracorporeal hemodialysis circuit (Travenol, Model No. CA-90). Pressure proximal to the hemodialysis filter was monitored to determine the time after administration of aptamer that coagulation occurred. Blood coagulation was marked by a pressure increase from about 50 mm Hg observed with uncoagulated blood (blood flow rate 200 mL/min) to pressure of at least 400 mm Hg.

Substance: 5' CGGGGAGAGGTTGGTGTGGTTGGCAATGGCTAGAGTAGTGAC GTTTTCGCGGTGAGGTCC 3' [Clone #29]
- % Bound (Trypsin): < 0.5%
- % Bound (TPA): < 0.5%
- % Bound (human serum albumin): 2.0% and < 0.5%
- % Bound (Kallikrein): < 0.5%
- % Bound (thrombin [1]; Control, no protein): 0%
- % Bound (thrombin [1]; Thrombin about 1 µM): 59.0%
- % Bound (Chymotrypsin): < 0.5%
- % Bound (Prothrombin): 11.0% and 9.5%
- % Bound (Plasmin): 15.0%
- Kd (thrombin [2]): ~200 nM

Substance: 5' GGGGGTT 3' [reference compound]
- thrombin clotting time (thrombin [3]): 26 s

Substance: 5' GGTTGGG 3'
- thrombin clotting time (thrombin [3]): 38 s

Substance: 5' GGTTGGGCTGGTTGGGTTGGG 3' (chemistry not given here) [Compound 21-mer, 21-mer thrombin aptamer]
- clot time (ancrod; 500 nM 21-mer): 24 s
- clot time (ancrod; 21-mer): 26 s

Substance: 5' GGTTGGTGTGGTT*G*G 3'
- PT clot time during infusion (thrombin [4]): 2.5 to 2.7 times the control value
- Ki (thrombin [5]): 40 nM

Substance: G*G*T*T*G*G*T*G*T*G*G*T*T*G*G: 15-mer with all thioate linkages
- Ki (thrombin [5]): 280 nM

Substance: GG(dU)TGGTGTGG(dU)TGG: 15-mer with uracil for thymine
- Ki (thrombin [5]): 80 nM

Substance: GGTTGG(dU)G(dU)GGTTGG: 15-mer with uracil for thymine
- Ki (thrombin [5]): 15 nM

Substance: GGTTGGTGTGGTTGG#G#T: closely related 17-mer with MEA linkages
- Ki (thrombin [5]): 35 nM

Substance: GGTTGGTGTGGTU'GG: 15-mer with 5-(1-pentynyl)uracil
- Ki (thrombin [5]): 20 nM

Substance: heparin
- time to blood coagulation in hemodialysis unit (human blood): > 80 min
